# Tests used:
# [1] = tested on: patients with advanced solid tumors; assay: Phase Ib 3 + 3 dose escalation: DLT, MTD and recommended phase II dose; assay type: in vivo, human
# [2] = tested on: patients with advanced solid tumors; assay: Adverse events; assay type: in vivo, human
# [3] = tested on: patients with advanced solid tumors; conditions: cited from earlier work
# [4] = tested on: class IA PI3K paralogues (p110α, β, and δ); conditions: cited from earlier work
# PTEN-deficient tumor = conditions: buparlisib plus cisplatin; cited from earlier work
# [5] = Group 1 (n = 16 subjects), with carboplatin + paclitaxel q21 days
# [6] = Group 2 (n = 14 subjects), with carboplatin + weekly paclitaxel q28 days
smiles,measurement,setting,value
Nc1cc(C(F)(F)F)c(-c2cc(N3CCOCC3)nc(N3CCOCC3)n2)cn1 [buparlisib],DLTs,"[1]; Group 1, DL2 buparlisib 80 mg/day, three patients",no DLTs
same,DLTs,"[1]; Group 1, DL3 buparlisib 100 mg/day, six evaluable subjects",no DLTs
same,DLT description,"[1]; Group 1, dose level 1, 50 mg/day, NSCLC, 50 F",Grade 3 alkaline phosphatase elevation
same,MTD for buparlisib,"[1]; Group 1: carboplatin AUC 5 + paclitaxel 175 mg/m^2 day 1, 21-day cycle, pegfilgrastim",100 mg/day
same,phase II recommended dose of buparlisib,[1]; Group 1 regimen,100 mg/day
same,DLTs,"[1]; Group 2, DL1 buparlisib 50 mg/day, three patients",no DLTs
same,DLTs,"[1]; Group 2, DL2 buparlisib 80 mg/day, first three patients",no DLTs
same,subjects who completed cycle 1 without DLT,"[1]; Group 2, DL2 buparlisib 80 mg/day, six enrolled",five of six
same,DLT description,"[1]; Group 2, dose level 3, 100 mg/day, NPC, 50 M",Grade 3 uncomplicated neutropenia >7 days
same,DLT description,"[1]; Group 2, dose level 3, 100 mg/day, thyroid cancer, 61 F",Grade 3 uncomplicated neutropenia with grade 2 thrombocytopenia >7 days
same,MTD for buparlisib,"[1]; Group 2: carboplatin AUC 5 day 1 + paclitaxel 80 mg/m^2 days 1, 8, 15, 28-day cycle, no growth factor",80 mg/day
same,phase II recommended dose of buparlisib,[1]; Group 2 regimen,80 mg/day
same,"ALT and/or AST elevation, any grade",[2]; [5],9 (56) n (%)
same,"ALT and/or AST elevation, ≥Grade 3",[2]; [5],2 (13) n (%)
same,"Alkaline phosphatase, increased, any grade",[2]; [5],14 (88) n (%)
same,"Alkaline phosphatase, increased, ≥Grade 3",[2]; [5],2 (13) n (%)
same,"Alopecia, any grade",[2]; [5],14 (88) n (%)
same,"Anemia, any grade",[2]; [5],13 (81) n (%)
same,"Anemia, ≥Grade 3",[2]; [5],2 (13) n (%)
same,"Anorexia, any grade",[2]; [5],13 (81) n (%)
same,"Anorexia, ≥Grade 3",[2]; [5],1 (6) n (%)
same,"Anxiety, any grade",[2]; [5],6 (38) n (%)
same,"Anxiety, ≥Grade 3",[2]; [5],0 n (%)
same,"Arthralgia, any grade",[2]; [5],13 (81) n (%)
same,"Arthralgia, ≥Grade 3",[2]; [5],1 (6) n (%)
same,"Constipation, any grade",[2]; [5],11 (69) n (%)
same,"Constipation, ≥Grade 3",[2]; [5],0 n (%)
same,"Cough, any grade",[2]; [5],9 (56) n (%)
same,"Cough, ≥Grade 3",[2]; [5],0 n (%)
same,"Depressed mood, any grade",[2]; [5],6 (38) n (%)
same,"Depressed mood, ≥Grade 3",[2]; [5],1 (6) n (%)
same,"Diarrhea, any grade",[2]; [5],14 (88) n (%)
same,"Diarrhea, ≥Grade 3",[2]; [5],1 (6) n (%)
same,"Dizziness, any grade",[2]; [5],10 (63) n (%)
same,"Dizziness, ≥Grade 3",[2]; [5],0 n (%)
same,"Dyspnea, any grade",[2]; [5],11 (69) n (%)
same,"Dyspnea, ≥Grade 3",[2]; [5],0 n (%)
same,"Fatigue, any grade",[2]; [5],14 (88) n (%)
same,"Fatigue, ≥Grade 3",[2]; [5],1 (6) n (%)
same,"Hypercholesterolemia, any grade",[2]; [5],7 (44) n (%)
same,"Hypercholesterolemia, ≥Grade 3",[2]; [5],0 n (%)
same,"Hyperglycemia, any grade",[2]; [5],15 (94) n (%)
same,"Hyperglycemia, ≥Grade 3",[2]; [5],2 (13) n (%)
same,"Hypertension, any grade",[2]; [5],6 (38) n (%)
same,"Hypertension, ≥Grade 3",[2]; [5],0 n (%)
same,"Hypertriglyceridemia, any grade",[2]; [5],7 (44) n (%)
same,"Hypertriglyceridemia, ≥Grade 3",[2]; [5],0 n (%)
same,"Hypoalbuminemia, any grade",[2]; [5],14 (88) n (%)
same,"Hypoalbuminemia, ≥Grade 3",[2]; [5],0 n (%)
same,"Hypocalcemia, any grade",[2]; [5],6 (38) n (%)
same,"Hypocalcemia, ≥Grade 3",[2]; [5],1 (6) n (%)
same,"Hypomagnesemia, any grade",[2]; [5],10 (63) n (%)
same,"Hypomagnesemia, ≥Grade 3",[2]; [5],0 n (%)
same,"Hyponatremia, any grade",[2]; [5],8 (50) n (%)
same,"Hyponatremia, ≥Grade 3",[2]; [5],3 (19) n (%)
same,"Hypophosphatemia, any grade",[2]; [5],2 (13) n (%)
same,"Hypophosphatemia, ≥Grade 3",[2]; [5],2 (13) n (%)
same,"INR, increased, any grade",[2]; [5],6 (38) n (%)
same,"INR, increased, ≥Grade 3",[2]; [5],0 n (%)
same,"Leukopenia, any grade",[2]; [5],12 (75) n (%)
same,"Leukopenia, ≥Grade 3",[2]; [5],2 (13) n (%)
same,"Lymphopenia, any grade",[2]; [5],12 (75) n (%)
same,"Lymphopenia, ≥Grade 3",[2]; [5],12 (75) n (%)
same,"Mucositis, oral, any grade",[2]; [5],6 (38) n (%)
same,"Mucositis, oral, ≥Grade 3",[2]; [5],0 n (%)
same,"Myalgia, any grade",[2]; [5],11 (69) n (%)
same,"Myalgia, ≥Grade 3",[2]; [5],1 n (%)
same,"Nausea, any grade",[2]; [5],12 (75) n (%)
same,"Nausea, ≥Grade 3",[2]; [5],0 n (%)
same,"Neuropathy, sensory, any grade",[2]; [5],7 (44) n (%)
same,"Neuropathy, sensory, ≥Grade 3",[2]; [5],1 (6) n (%)
same,"Neutropenia, any grade",[2]; [5],4 (25) n (%)
same,"Neutropenia, ≥Grade 3",[2]; [5],2 (13) n (%)
same,"Rash, skin toxicity, any grade",[2]; [5],13 (81) n (%)
same,"Rash, skin toxicity, ≥Grade 3",[2]; [5],0 n (%)
same,"Thrombocytopenia, any grade",[2]; [5],13 (81) n (%)
same,"Thrombocytopenia, ≥Grade 3",[2]; [5],3 (19) n (%)
same,incidence rate of ≥grade 3 leukopenia,[2]; Group 2,64%
same,incidence rate of ≥grade 3 neutropenia,[2]; Group 2,79%
same,"ALT and/or AST elevation, any grade",[2]; [6],6 (43) n (%)
same,"ALT and/or AST elevation, ≥Grade 3",[2]; [6],1 (7) n (%)
same,"Alkaline phosphatase, elevated, any grade",[2]; [6],5 (36) n (%)
same,"Alkaline phosphatase, elevated, ≥Grade 3",[2]; [6],1 (7) n (%)
same,"Alopecia, any grade",[2]; [6],11 (79) n (%)
same,"Anemia, any grade",[2]; [6],14 (100) n (%)
same,"Anemia, ≥Grade 3",[2]; [6],1 (7) n (%)
same,"Anorexia, any grade",[2]; [6],9 (64) n (%)
same,"Anorexia, ≥Grade 3",[2]; [6],0 n (%)
same,"Anxiety, any grade",[2]; [6],5 (36) n (%)
same,"Anxiety, ≥Grade 3",[2]; [6],0 n (%)
same,"Arthralgia, any grade",[2]; [6],7 (50) n (%)
same,"Arthralgia, ≥Grade 3",[2]; [6],0 n (%)
same,"Constipation, any grade",[2]; [6],8 (57) n (%)
same,"Constipation, ≥Grade 3",[2]; [6],0 n (%)
same,"Cough, any grade",[2]; [6],8 (57) n (%)
same,"Cough, ≥Grade 3",[2]; [6],0 n (%)
same,"Diarrhea, any grade",[2]; [6],7 (50) n (%)
same,"Diarrhea, ≥Grade 3",[2]; [6],0 n (%)
same,"Dyspepsia, any grade",[2]; [6],6 (43) n (%)
same,"Dyspepsia, ≥Grade 3",[2]; [6],0 n (%)
same,"Fatigue, any grade",[2]; [6],11 (79) n (%)
same,"Fatigue, ≥Grade 3",[2]; [6],2 (14) n (%)
same,"Hypercholesterolemia, any grade",[2]; [6],9 (64) n (%)
same,"Hypercholesterolemia, ≥Grade 3",[2]; [6],0 n (%)
same,"Hyperglycemia, any grade",[2]; [6],14 (100) n (%)
same,"Hyperglycemia, ≥Grade 3",[2]; [6],0 n (%)
same,"Hypertension, any grade",[2]; [6],6 (43) n (%)
same,"Hypertension, ≥Grade 3",[2]; [6],0 n (%)
same,"Hypertriglyceridemia, any grade",[2]; [6],8 (57) n (%)
same,"Hypertriglyceridemia, ≥Grade 3",[2]; [6],1 (7) n (%)
same,"Hypoalbuminemia, any grade",[2]; [6],13 (93) n (%)
same,"Hypoalbuminemia, ≥Grade 3",[2]; [6],0 n (%)
same,"Hypocalcemia, any grade",[2]; [6],5 (36) n (%)
same,"Hypocalcemia, ≥Grade 3",[2]; [6],0 n (%)
same,"Hypokalemia, any grade",[2]; [6],5 (36) n (%)
same,"Hypokalemia, ≥Grade 3",[2]; [6],1 (7) n (%)
same,"Hypomagnesemia, any grade",[2]; [6],7 (50) n (%)
same,"Hypomagnesemia, ≥Grade 3",[2]; [6],0 n (%)
same,"Hyponatremia, any grade",[2]; [6],6 (43) n (%)
same,"Hyponatremia, ≥Grade 3",[2]; [6],0 n (%)
same,"Leukopenia, any grade",[2]; [6],14 (100) n (%)
same,"Leukopenia, ≥Grade 3",[2]; [6],9 (64) n (%)
same,"Lymphopenia, any grade",[2]; [6],7 (50) n (%)
same,"Lymphopenia, ≥Grade 3",[2]; [6],7 (50) n (%)
same,"Mucositis, oral, any grade",[2]; [6],5 (36) n (%)
same,"Mucositis, oral, ≥Grade 3",[2]; [6],2 (14) n (%)
same,"Myalgia, any grade",[2]; [6],5 (36) n (%)
same,"Myalgia, ≥Grade 3",[2]; [6],0 n (%)
same,"Nausea, any grade",[2]; [6],10 (71) n (%)
same,"Nausea, ≥Grade 3",[2]; [6],0 n (%)
same,"Neuropathy, sensory, any grade",[2]; [6],5 (36) n (%)
same,"Neuropathy, sensory, ≥Grade 3",[2]; [6],0 n (%)
same,"Neutropenia, any grade",[2]; [6],13 (93) n (%)
same,"Neutropenia, ≥Grade 3",[2]; [6],11 (79) n (%)
same,"Pain, not otherwise specified, any grade",[2]; [6],5 (36) n (%)
same,"Pain, not otherwise specified, ≥Grade 3",[2]; [6],0 n (%)
same,"Rash, skin toxicity, any grade",[2]; [6],8 (57) n (%)
same,"Rash, skin toxicity, ≥Grade 3",[2]; [6],0 n (%)
same,"Thrombocytopenia, any grade",[2]; [6],13 (93) n (%)
same,"Thrombocytopenia, ≥Grade 3",[2]; [6],0 n (%)
same,febrile neutropenia,[2]; both groups,no episodes of febrile neutropenia
same,treatment-related deaths,[2]; both groups,no treatment-related deaths
same,maximum tolerated dose (MTD) of buparlisib monotherapy,[3],100 mg/day
same,most common adverse events,"[3]; monotherapy, 83 patients, dose escalation and expansion","decreased appetite, diarrhea, nausea, hyperglycemia, and rash"
same,patients with radiographic responses,"[3]; monotherapy, among 83 patients, one confirmed, three unconfirmed",Four
same,inhibition of class IA PI3K paralogues,[4],potently inhibits
same,effect of combination in PTEN-deficient xenograft,PTEN-deficient tumor,synthetic lethality was achieved
